From US20240415828A1, “TLR7 AGONIST AND COMBINATIONS FOR CANCER TREATMENT” (BIONTECH SE, priority 2021, published 2024)

Columns and labels:
[1] = tested on: CT26 colon carcinoma cells; test: CT26 tumor model, BNT411 alone and with oxaliplatin (Example 4); format: in vivo, mouse
Experimental: FIG. 5. Anti-tumoral efficacy of BNT411 alone and in combination with oxaliplatin in a tumor mouse model. Mice (n=12 or 13 per group) subcutaneously inoculated with 2.5×10^5 CT26 colon carcinoma cells were used as tumor mouse model. Oxaliplatin was administered intraperitoneally (i.p.) (5 mg/kg, four times with 4 to 5 days between injections). BNT411 was administered i.v. at a dose level of 3 mg/kg eight times with 2 to 5 days interval between injections and at least 2 days after oxaliplatin therapy. Anti-tumor efficacy was evaluated by group mean tumor volumes in test versus control groups (vehicle only) on days 33 and 42 (at least 50% of test and control animals alive). IFNα levels in plasma were analyzed 1 h after first BNT411 administration and gp70+ T-cell populations in blood were analyzed on days 34 and 41. (A) Dosing schedule. (B) Graph showing the tumor volumes vs. days after inoculation. Group mean tumor volumes (±SEM (standard error of the mean)) for all live animals are shown. Treatment groups included nine to ten mice. Additionally, tumor volumes of animals that were euthanized due to tumor load were carried forward for as long as they were larger than the group median tumor volume (last observation carried forward (LOCF) values). Curves were discontinued for groups with less than 50% animals alive. (C) Graph showing IFNα serum level 60 min after first injection for the 4 groups (control (vehicle); BNT411 alone; oxaliplatin alone; BNT411 and oxaliplatin). IFNα levels in control and test groups are shown by vertical bars (±SEM), Statistical significance between groups is indicated by horizontal lines. P-value summary: ****=p≤0.0001; ***=p≤0.001; **=p≤0.01, […].
(§1) Serum levels of IFNα were measured by sandwich ELISA (Pbl Assay Systems) according to manufacturer's instructions.
BALB/c mice were inoculated s.c. with 2.5×10^5−5×10^5 CT26-WT into the flank, respectively. Once tumors reached palpable sizes, mice were randomly divided into treatment and control groups. Tumor volume was measured unblinded with a caliper and calculated using the formula (a×b^2)/2 (a being the largest and b being the smallest diameter of the tumor). Tumor growth was documented as mean tumor size with standard error disregarding single distant outliers. Treatment was initiated after 7-10 d with tumors having reached an average volume of about 10 mm^3. […]
Oxaliplatin was administered intraperitoneally (i.p.) (5 mg/kg, four times with 4 to 5 days between injections). […] Anti-tumor efficacy was evaluated by group mean tumor volumes in test versus control groups (vehicle only) on study days 33 and 42, (at least 50% of test and control animals alive). IFNα levels in plasma were analyzed 1 h after first BNT411 administration and gp70+ T-cell populations in blood on study days 34 and 41.

[2] = tested on: CT26 colon carcinoma cells; test: CT26 tumor model, BNT411 alone (Example 3); format: in vivo, mouse
Experimental: FIG. 4. Anti-tumoral efficacy of BNT411 alone in a tumor mouse model. Mice (n=12 or 13 per group) subcutaneously inoculated with 5×10^5 CT26 colon carcinoma cells were used as tumor mouse model. BNT411 was administered i.v. at a dose level of 3 mg/kg eight times with 4 to 5 days interval (on days 14, 19, 23, 28, 33, 37, 42, and 47). A control group (n=13) received vehicle alone. Adaptive immunity was evaluated by analyzing gp70-antigen-specific T cell populations in blood and splenocytes 3 and 5 weeks after the first study drug administration. (A) Dosing schedule. (B) Graph showing the tumor volumes vs. days after inoculation. Group mean tumor volumes for all live animals are shown. Additionally, tumor volumes of animals that were euthanized due to tumor load were carried forward for as long as they were larger than the group median tumor volume (SEM: standard error of the mean; LOCF: last observation carried forward values).
as §1
BALB/c mice were inoculated s.c. with 2.5×10^5−5×10^5 CT26-WT into the flank, respectively. Once tumors reached palpable sizes, mice were randomly divided into treatment and control groups. Tumor volume was measured unblinded with a caliper and calculated using the formula (a×b^2)/2 (a being the largest and b being the smallest diameter of the tumor). Tumor growth was documented as mean tumor size with standard error disregarding single distant outliers. Treatment was initiated after 7-10 d with tumors having reached an average volume of about 10 mm^3. 3 mg/kg (75 μg/mouse; BALB/c mice) BNT411 was administered by i.v. injection to the retro-orbital venous plexus. Control groups received an equal volume of 100 μl saline vehicle (0.1% 1 M HCl, 0.1% 1 M NaOH, 99.8% isotonic NaCl solution pH 5.63).
Eight doses of BNT411 were administered i.v. at a dose level of 3 mg/kg eight times with 4 to 5 days interval (on days 14, 19, 23, 28, 33, 37, 42, and 47); cf., FIG. 4A. […] A control group (n=13) received vehicle alone. Adaptive immunity was evaluated by analyzing gp70-antigen-specific T cell populations in blood and splenocytes 3 and 5 weeks after the first study drug administration. Gp70 is the immune dominant CD8^+ T-cell recognized antigen of the CT26 tumor model.

Compound: COCCc1nc2c(N)nc3ccccc3c2n1CCCCN(C(C)=O)C1CCOCC1 [BNT411]
- anti-tumor efficacy, T/C value ([1]; BNT411 3 mg/kg i.v. eight times, oxaliplatin 5 mg/kg i.p. four times, group mean tumor volumes test vs control): 65.8%
- effect on tumor growth (conclusion) ([1]; mouse, in vivo): anti-tumor activity
- IFNα levels, BNT411 monotherapy group vs combination of BNT411 and oxaliplatin ([1]; two-way ANOVA): statistically significantly higher
- tumor growth inhibition, test/control value ([2]; 3 mg/kg i.v. eight times, day 35): 43.3%
- animals still alive ([2]; 3 mg/kg i.v., day 49, last day of the experiment): 8 of 13
- increase in blood IFNα levels compared with the control group ([2]; 1 h after the first dosing, 3 mg/kg i.v.): 50 fold
- frequency of gp70+ T-cells in blood ([2]; day 35): 8.72%
- frequency of gp70+ T-cells in splenocytes ([2]; day 50): 0.76%
- blood parameters (alanine transaminase, aspartate transaminase, creatine kinase, glutamate dehydrogenase, lactate dehydrogenase, bilirubin) vs control group ([2]; serum, day 19): comparable
